Reference: EP4582426A1, “PAN-KRAS INHIBITOR COMPOUND” (Adlai Nortye Biopharma Co., Ltd., priority 2022, dated 2024)

Assays:
[1] = system: AsPC-1 (G12D); experiment: In vitro cell proliferation inhibition test (CellTiter-Glo Luminescent Cell Viability Assay); type: cell-based; conditions: AsPC-1 cell line, Pancreas, KRAS (p.G12D), cells and compounds co-incubated 72 hours
Excerpt: (§1) Due to the diversity of RAS mutations and in order to evaluate the activity of compounds in different RAS mutant cell lines, we selected KRAS^WT, KRAS^G12C, KRAS^G12D), KRAS^G12V and BRAF mutant cell lines (see the table below) for in vitro activity evaluation and screening of compounds .
(§2) Experimental protocol: CellTiter-Glo® Cell Luminescent Viability Assay (Promega)
(§3) According to the doubling time of different cell lines, different numbers of cells (1000-5000 cells/well) were inoculated into 96-well plates containing 180 µl of the corresponding medium, and cultured overnight in a 37°C cell incubator containing 5% CO2. On the second day, the compound to be tested was pre-diluted 3-fold with the medium, the highest concentration was 100 µM, and there were 10 concentration gradients in total; then 20 µl of the medium containing different concentrations of the compound was added to the cells in the 96-well plate to ensure the final concentration of the compound to be up to 10 µM, with 10 concentration gradients of 3-fold dilutions. After co-incubating cells and compounds for 72 hours, the 96-well plate was taken out of the incubator, placed at room temperature for 30 minutes, and then 25 µl CellTiter-Glo® Reagent was added to each well to mix well, and incubated at room temperature for 10 minutes, and then 100 µl of the sample was transferred to a white 96-well plate (OptiPlateTM-96, PerkinElmer), the […] signal value was read using a multi-functional microplate reader (SpectraMax® i3x, Molecular devices). Subsequently, the signal value was standardized, and the four-parameter fitting regression equation was used for curve fitting to calculate the half maximal inhibitory concentration (IC50) of the compound on the cell line. Table 3: Antiproliferative activity of compounds of the present invention on KRAS cell mutants

[2] = system: SW480 (G12V); experiment: as above; type: cell-based; conditions: SW480 cell line, Large intestine, Colon, KRAS (p.G12V), cells and compounds co-incubated 72 hours
Excerpt: as §1, §2, §3

Compound	IC50 [1]	IC50 [2]	also measured
CCn1c(-c2cc(C#CCN3CCP(C)(=O)CC3)cnc2[C@H](C)OC)c2c3cc(ccc31)-c1csc(n1)C[C@H](NC(=O)[C@H]1C[C@@H]1C)C(=O)N1CCC[C@H](N1)C(=O)OCC(C)(C)C2 [Example 49, (1S,2S)-N-((6^3S,4S,Z)-1^1-ethyl-1^2-(2-((S)-1-methoxyethyl)-5-(3-(4-methyl-4-oxido-1,4-azaphosphinan-1-yl)prop-1-yn-1-yl)pyridin-3-yl)-10,10-dimethyl-5,7-dioxo-6^1,6^2,6^3,6^4,6^5,6^6-hexahydro-1^1H-8-oxa-2(4,2)-thiazola-1(5,3)-indola-6(1,3)-pyridazinacycloundecaphane-4-yl)-2-methylcyclopropane-1-carboxamide]	7.5 nM	9.2 nM	–
CCn1c(-c2cc(C#Cc3cnccn3)cnc2[C@H](C)OC)c2c3cc(ccc31)-c1csc(n1)C[C@H](NC(=O)[C@H]1C[C@@H]1C)C(=O)N1CCC[C@H](N1)C(=O)OCC(C)(C)C2 (single isomer, unassigned) [Example 27]	4.6 nM	14.5 nM	–
CCn1c(-c2cc(C#CC3CN(C)CCO3)cnc2C(C)OC)c2c3cc(ccc31)-c1csc(n1)CC(NC(=O)C1CC1C)C(=O)N1CCCC(N1)C(=O)OCC(C)(C)C2 (single isomer, unassigned) [Example 8]	17.9 nM	18.9 nM	IC50 ([1]; listed as 8'): 3870 nM; IC50 ([2]; listed as 8'): 2030 nM
CCn1c(-c2cc(C#Cc3ccccn3)cnc2[C@H](C)OC)c2c3cc(ccc31)-c1csc(n1)C[C@H](NC(=O)[C@H]1C[C@@H]1C)C(=O)N1CCC[C@H](N1)C(=O)OCC(C)(C)C2 [Example 16, (1S,2S)-N-((63S,4S,Z)-11-ethyl-12-(2-((S)-1-methoxyethyl)-5-(pyridin-2-ylethynyl)pyridin-3-yl)-10,10-dimethyl-5,7-dioxo-61,62,63,64,65,66-hexahydro-11H-8-oxa-2(4,2)-thiazola-1(5,3)-indola-6(1,3)-pyridazinacyclonecaphane-4-yl)-2-methylcyclopropane-1-carboxamide]	38.8 nM	28.8 nM	IC50 ([1]; listed as 16'): 591 nM; IC50 ([2]; listed as 16'): 584 nM
(1S,2S)-N-((6^3S,4S,Z)-1^1-ethyl-1^2-(2-((S)-1-methoxyethyl)-5-(((S)-4-methyl-1,1-dioxidothiomorpholin-2-yl)ethynyl)pyridin-3-yl)-10,10-dimethyl-5,7-dioxo-6^1,6^2,6^3,6^4,6^5,6^6-hexahydro-1^1H-8-oxa-2(4,2)-thiazola-1(5,3)-indola-6(1,3)-pyridazinacycloundecaphane-4-yl)-2-methylcyclopropane-1-carboxamide [Example 45]	5.3 nM	7.4 nM	–
CCn1c(-c2cc(C#CCN3CCOC[C@H]3C)cnc2[C@H](C)OC)c2c3cc(ccc31)-c1csc(n1)C[C@H](NC(=O)[C@H]1C[C@@H]1C)C(=O)N1CCC[C@H](N1)C(=O)OCC(C)(C)C2 [Example 15, (1S,2S)-N-((63S,4S,Z)-11-ethyl-12-(2-((S)-1-methoxyethyl)-5-(3-((R)-3-methylmorpholino)prop-1-yn-1-yl)pyridin-3-yl)-10,10-dimethyl-5,7-dioxo-61,62,63,64,65,66-hexahydro-11H-8-oxa-2 (4,2)-thiazola-1(5,3)-indola-6(1,3)-pyridazinacyclonecaphane-4-yl)-2-methylcyclopropane-1-carboxamide]	1.7 nM	2.2 nM	IC50 ([1]; listed as 15'): 1880 nM; IC50 ([2]; listed as 15'): 1060 nM
CCn1c(-c2cc(C#Cc3cccc4c3ccn4C)cnc2[C@H](C)OC)c2c3cc(ccc31)-c1csc(n1)C[C@H](NC(=O)[C@H]1C[C@@H]1C)C(=O)N1CCC[C@H](N1)C(=O)OCC(C)(C)C2 [Example 56, (1S,2S)-N-((6^3S,4S,Z)-1^1-ethyl-1^2-(2-((S)-1-methoxyethyl)-5-((1-methyl-1H-indol-4-yl)ethynyl)pyridin-3-yl)-10,10-dimethyl-5,7-dioxo-6^1,6^2,6^3,6^4,6^5,6^6-hexahydro-1^1H-8-oxa-2(4,2)-thiazola-1(5,3)-indola-6(1,3)-pyridazinacycloundecaphane-4-yl)-2-methylcyclopropane-1-carboxamide]	291 nM	487 nM	–
CCn1c(-c2cc(C#CCN3CCOCC3)cnc2[C@H](C)OC)c2c3cc(ccc31)-c1csc(n1)C[C@H](NC(=O)C1(C(F)(F)F)CC1)C(=O)N1CCC[C@H](N1)C(=O)OCC(C)(C)C2 (single isomer, unassigned) [Example 26]	20.8 nM	34.6 nM	–
CCn1c(-c2cc(C#CCN3CCOCC3CO)cnc2C(C)OC)c2c3cc(ccc31)-c1csc(n1)CC(NC(=O)C1C(C)C1C)C(=O)N1CCCC(N1)C(=O)OCC(C)(C)C2 (single isomer, unassigned) [Example 25]	0.35 nM	0.51 nM	–

Now from value to compound, other results behind:

IC50 [1]	IC50 [2]	Compound	also measured
5.7 nM	7590 nM	CCn1c(-c2cc(C#C[C@@H]3CCN3C)cnc2[C@H](C)OC)c2c3cc(ccc31)-c1csc(n1)C[C@H](NC(=O)[C@H]1C[C@@H]1C)C(=O)N1CCC[C@H](N1)C(=O)OCC(C)(C)C2 [Example 13, (1S,2S)-N-((63S,4S,Z)-11-ethyl-12-(2-((S)-1-methoxyethyl)-5-(((S)-1-methylazetidin-2-yl)ethynyl)pyridin-3-yl)-10,10-dimethyl-5,7-dioxo-61,62,63,64,65,66-hexahydro-11H-8-oxa-2(4,2)-Thiazola-1(5,3)-indola-6(1,3)-pyridazinacyclonecaphane-4-yl)-2-methylcyclopropane-1-carboxamide]	IC50 ([1]; listed as 13'): 2820 nM
1.71 nM	1.55 nM	CCn1c(-c2cc(C#CCN3CCN(C)CC3)cnc2[C@H](C)OC)c2c3cc(ccc31)-c1csc(n1)C[C@H](NC(=O)[C@H]1C[C@@H]1C)C(=O)N1CCC[C@H](N1)C(=O)OCC(C)(C)C2 [Example 60, (1S,2S)-N-((6^3S,4S,Z)-1^1-ethyl-1^2-(2-((S)-1-methoxyethyl)-5-(3-(4-methylpiperazin-1-yl)prop-1-yn-1-yl)pyridin-3-yl)-10,10-dimethyl-5,7-dioxo-6^1,6^2,6^3,6^4,6^5,6^6-hexahydro-1^1H-8-oxa-2(4,2)-thiazola-1(5,3)-indola-6(1,3)-pyridazinacycloundecaphane-4-yl)-2-methylcyclopropane-1-carboxamide]	–
4.5 nM	31.6 nM	CCn1c(-c2cc(C#CCN3C[C@@H](C)O[C@@H](C)C3)cnc2[C@H](C)OC)c2c3cc(ccc31)-c1csc(n1)C[C@H](NC(=O)[C@H]1C[C@@H]1C)C(=O)N1CCC[C@H](N1)C(=O)OCC(C)(C)C2 (single isomer, unassigned) [Example 9]	IC50 ([1]; listed as 9'): 1360 nM; IC50 ([2]; listed as 9'): 963 nM
11.8 nM	33.9 nM	CCn1c(-c2cc(C#CC3CN(C)C3)cnc2C(C)OC)c2c3cc(ccc31)-c1csc(n1)CC(NC(=O)C1CC1C)C(=O)N1CCCC(N1)C(=O)OCC(C)(C)C2 [Example 12, (1S,2S)-N-((63S,4S,Z)-11-ethyl-12-(2-((S)-1-methoxyethyl)-5-((1-methylazetidin-3-yl)ethynyl)pyridin-3-yl)-10,10-dimethyl-5,7-dioxo-61,62,63,64,65,66-hexahydro-11H-8-oxa-2(4,2)-thiazola-1(5,3)-indola-6(1,3)-pyridazinacyclonecaphane-4-yl)-2-methylcyclopropane-1-carboxamide]	IC50 ([1]; listed as 12'): 443 nM; IC50 ([2]; listed as 12'): 1790 nM
4.5 nM	5.4 nM	CCn1c(-c2cc(C#CC3CN(C)CCS3(=N)=O)cnc2C(C)OC)c2c3cc(ccc31)-c1csc(n1)CC(NC(=O)C1CC1C)C(=O)N1CCCC(N1)C(=O)OCC(C)(C)C2 [Example 51, (1S,2S)-N-((6^3S,4S,Z)-1^1-ethyl-1^2-(5-(((2S)-1-imino-4-methyl-1-oxido-1λ^6-thiomorpholin-2-yl)ethynyl)-2-((S)-1-methoxyethyl)pyridin-3-yl)-10,10-dimethyl-5,7-dioxo-6^1,6^2,6^3,6^4,6^5,6^6-hexahydro-1^1H-8-oxa-2(4,2)-thiazola-1(5,3)-indola-6(1,3)-pyridazinacycloundecaphane-4-yl)-2-methylcyclopropane-1-carboxamide]	–
